Results published in patent US12258310B2, “Solid peroxyalphahydroxycarboxylic acid generation compositions and the use thereof” (ECOLAB USA INC., priority 2021, dated 2025).
Values joined by “and” are separate entries in the source; they are usually repeats but may differ in a detail not shown here. Equal entries are not always repeated.

Experiments:
[1] = Physical property (vapor pressure, odor) of alphacarboxylic acids and peroxyalphacarboxylic acids; assay type: physicochemical
[2] = cited from earlier work
[3] = PLA generation kinetics and pH from solid pellet of Table 4 dissolved in DI water; assay type: physicochemical
Experimental: Following the successful perhydrolysis reactions of the lactide and glycolide esters, the solid composition shown in Table 4 using a lactide precursor was used to generate peroxylactic acid according to the same reaction scheme in FIG. 1. The lactide precursor was formulated into a solid pellet with citric acid and sodium percarbonate and the solid peroxyalphahydroxycarboxylic acid forming composition was added to water for the perhydrolysis reaction to generate peroxylactic acid (PLA). Beneficially, the citric acid acts as both a buffer and a dispersant or disintegrating reagent to provide effervescence to dissolve the solid composition more quickly into water and initiate the reaction of forming PLA. The reaction kinetics were evaluated by dissolving approximately 2.5 gram pellet as shown in Table 4 in 500 mL DI water to measure PLA generation and pH over time.
The PLA generation were measured on two occasions. […] The initial testing point of 10 minutes provides time for the pellet to dissolve in the water so that PLA generation can begin.
The stability of the tablets is also quantifiable by the chemistry of the reagents as they are capable of self-reacting. As a result, tablet (or solid) stability can also be assessed by the ability or capacity of the tablet to generate PLA after storage as another quantifiable mechanism to confirm stability. This is shown in Example 1, Table 6 compared to Table 5 is a direct comparison of PLA generation profiles of the tablets after 9 months of storage. […] In some embodiments it is preferred that at least about 50% or preferably at least about 80% of the PLA (or peroxyalphahydroxycarboxylic acid) generation is maintained.

[4] = test system: Salmonella ser. Heidelberg, Newport and Braenderup (modified to be resistant to 50 μg/mL nalidixic acid); experiment: Antimicrobial efficacy on chicken carcass, 15 second dip; assay type: cell-based; conditions: for Avg Log10 Survivors / CFU/Surface (CFU/ml × 50) / Log10 Reduction / Log10 Survivors: 15 second dip, drain time 30 minutes, room temperature
Experimental: Antimicrobial Efficacy of Peroxylactic Acid. The antimicrobial efficacy of peroxylactic acid generated from the solid peroxyalphahydroxycarboxylic acid forming composition of Table 4 was evaluated on chicken carcass against Salmonella in comparison to peroxyacetic acid (PAA). The molecular weight of PLA is 106, and PAA 76, therefore the molar equivalent base of the peracids is 500 ppm PLA equals to 359 ppm PAA.

[5] = test system: Staphylococcus aureus ATCC 6538; experiment: US EPA food contact suspension test (AOAC 960.09); assay type: cell-based; conditions: 30 seconds, 500 ppm synthetic hard water, ambient (18-20° C.)
Experimental: (§1) Antimicrobial Efficacy of Peroxylactic Acid. The antimicrobial efficacy of peroxylactic acid generated from the solid peroxyalphahydroxycarboxylic acid forming composition of Table 4 was evaluated following the US EPA food contact suspension test protocol (AOAC 960.09) against Staphylococcus aureus and Escherichia coli according to the conditions set forth in Table 7.

[6] = test system: Escherichia coli ATCC 11229; experiment: US EPA food contact suspension test (AOAC 960.09); assay type: cell-based; conditions: 30 seconds, 500 ppm synthetic hard water, ambient (18-20° C.)
Experimental: as §1

[7] = test system: Salmonella, E. coli, Campylobacter and Listeria; experiment: US EPA food contact suspension test (AOAC 960.09), FIG. 3; assay type: cell-based; conditions: as low as 25 ppm, 30 seconds
Experimental: (§2) Additional Antimicrobial Efficacy of Peroxylactic Acid. Additional antimicrobial efficacy of generated peroxylactic acid was evaluated following the US EPA food contact suspension test protocol (AOAC 960.09) against Salmonella, E. coli, Campylobacter and Listeria according to the conditions set forth in Table 12.

[8] = test system: Listeria monocytogenes ATCC 49594; experiment: as above; assay type: cell-based; conditions: 100 ppm, 30 seconds
Experimental: as §2

[9] = test system: Listeria monocytogenes ATCC 49594; conditions: known; cited from earlier work
[10] = approx. 2.5 gram pellet of Table 4 in 500 mL DI water, first PLA generation, 10 min
[11] = approx. 2.5 gram pellet of Table 4 in 500 mL DI water, first PLA generation, 30 min
[12] = approx. 2.5 gram pellet of Table 4 in 500 mL DI water, first PLA generation, 60 min
[13] = approx. 2.5 gram pellet of Table 4 in 500 mL DI water, first PLA generation, 90 min
[14] = approx. 2.5 gram pellet of Table 4 in 500 mL DI water, first PLA generation, 120 min
[15] = approx. 2.5 gram pellet of Table 4 in 500 mL DI water, first PLA generation, 150 min
[16] = approx. 2.5 gram pellet of Table 4 in 500 mL DI water, first PLA generation, 180 min
[17] = approx. 2.5 gram pellet of Table 4 in 500 mL DI water, first PLA generation, 210 min
[18] = approx. 2.5 gram pellet of Table 4 in 500 mL DI water, first PLA generation, 240 min
[19] = same batch of tablets stored under ambient conditions for 9 months, 20 min
[20] = same batch of tablets stored under ambient conditions for 9 months, 30 min
[21] = same batch of tablets stored under ambient conditions for 9 months, 40 min
[22] = same batch of tablets stored under ambient conditions for 9 months, 50 min
[23] = same batch of tablets stored under ambient conditions for 9 months, 60 min
[24] = same batch of tablets stored under ambient conditions for 9 months, 120 min
[25] = same batch of tablets stored under ambient conditions for 9 months, 240 min
[26] = same batch of tablets stored under ambient conditions for 9 months, 300 min
[27] = same batch of tablets stored under ambient conditions for 9 months, 360 min

Compound: CC(=O)O [Acetic Acid]
- Odor [1]: Sour
- Vapor Pressure (20° C.) [2]: 1.56 KPa

Compound: CC(O)C(=O)O (stereo not shown) [Lactic Acid]
- Odor [1]: No irritative odor
- Vapor Pressure (20° C.) [2]: 0.01 KPa

Compound: CC(O)C(=O)OO (stereo not shown) [PLA, peroxylactic acid]
- PLA (ppm) [3, 10]: 130 ppm
- pH [3, 10]: 6.06
- PLA (ppm) [3, 11]: 222 ppm
- pH [3, 11]: 5.95
- PLA (ppm) [3, 12]: 236 ppm
- pH [3, 12]: 5.64
- PLA (ppm) [3, 13]: 217 ppm
- pH [3, 13]: 5.41
- PLA (ppm) [3, 14]: 202 ppm
- pH [3, 14]: 5.23
- PLA (ppm) [3, 15]: 188 ppm
- pH [3, 15]: 5.11
- PLA (ppm) [3, 16]: 170 ppm
- pH [3, 16]: 5.01
- PLA (ppm) [3, 17]: 152 ppm
- pH [3, 17]: 4.93
- PLA (ppm) [3, 18]: 146 ppm
- pH [3, 18]: 4.87
- PLA (ppm) ([3]; same batch of tablets stored under ambient conditions for 9 months, 10 min): 122 ppm
- PLA (ppm) [3, 19]: 150 ppm
- pH [3, 19]: 5.73
- PLA (ppm) [3, 20]: 170 ppm
- pH [3, 20]: 5.69
- PLA (ppm) [3, 21]: 198 ppm
- pH [3, 21]: 5.62
- PLA (ppm) [3, 22]: 198 ppm
- pH [3, 22]: 5.58
- PLA (ppm) [3, 23]: 200 ppm
- pH [3, 23]: 5.49
- PLA (ppm) [3, 24]: 179 ppm
- pH [3, 24]: 5.25
- PLA (ppm) ([3]; same batch of tablets stored under ambient conditions for 9 months, 180 min): 160 ppm
- PLA (ppm) [3, 25]: 129 ppm
- pH [3, 25]: 4.82
- PLA (ppm) [3, 26]: 102 ppm
- pH [3, 26]: 4.74
- PLA (ppm) [3, 27]: 85 ppm
- pH [3, 27]: 4.68
- Odor [1]: Odorless
- Avg Log10 Survivors ([4]; 500 ppm): 6.55 Log10
- CFU/Surface (CFU/ml × 50) ([4]; 500 ppm): 2.90E+06 CFU/Surface and 5.45E+06 CFU/Surface
- Log10 Reduction ([4]; 500 ppm): 1.08 Log10
- Log10 Survivors ([4]; 500 ppm): 6.46 Log10 and 6.74 Log10
- Micro efficacy (log reduction) compared to peroxyacetic acid ([4]; 1000 ppm): improved micro efficacy
- Avg Log10 Survivors ([4]; 1000 ppm): 6.16 Log10
- CFU/Surface (CFU/ml × 50) ([4]; 1000 ppm): 1.60E+06 CFU/Surface and 1.85E+06 CFU/Surface and 1.05E+06 CFU/Surface
- Log10 Reduction ([4]; 1000 ppm): 1.47 Log10
- Log10 Survivors ([4]; 1000 ppm): 6.20 Log10 and 6.27 Log10 and 6.02 Log10
- Avg Log10 Survivors ([4]; 2000 ppm): 6.54 Log10
- Log10 Reduction ([4]; 2000 ppm): 1.09 Log10
- Micro efficacy (log reduction) compared to peroxyacetic acid ([4]; varying concentrations): at least equivalent micro efficacy
- Average Log10 Growth ([5]; 50 ppm PLA): >6.48 Log10
- CFU/ml ([5]; 50 ppm PLA): >3.00E+06 CFU/ml
- Log10 Growth ([5]; 50 ppm PLA): >6.48 Log10
- Log10 Reduction ([5]; 50 ppm PLA): <1.32 Log10
- Average Log10 Growth ([5]; 100 ppm PLA): 5.22 Log10
- CFU/ml ([5]; 100 ppm PLA): 2.20E+05 CFU/ml and 1.24E+05 CFU/ml
- Log10 Growth ([5]; 100 ppm PLA): 5.34 Log10 and 5.09 Log10
- Log10 Reduction ([5]; 100 ppm PLA): 2.58 Log10
- Average Log10 Growth ([5]; 150 ppm PLA): 2.82 Log10
- CFU/ml ([5]; 150 ppm PLA): 9.20E+02 CFU/ml and 4.80E+02 CFU/ml
- Log10 Growth ([5]; 150 ppm PLA): 2.96 Log10 and 2.68 Log10
- Log10 Reduction ([5]; 150 ppm PLA): 4.98 Log10
- Average Log10 Growth ([5]; 200 ppm PLA): <1.00 Log10
- CFU/ml ([5]; 200 ppm PLA): <1.00E+01 CFU/ml
- Log10 Growth ([5]; 200 ppm PLA): <1.00 Log10
- Log10 Reduction ([5]; 200 ppm PLA): >6.80 Log10
- Average Log10 Growth ([6]; 25 ppm PLA): 3.25 Log10
- CFU/ml ([6]; 25 ppm PLA): 1.49E+03 CFU/ml and 2.10E+03 CFU/ml
- Log10 Growth ([6]; 25 ppm PLA): 3.17 Log10 and 3.32 Log10
- Log10 Reduction ([6]; 25 ppm PLA): 4.64 Log10
- Average Log10 Growth ([6]; 50 ppm PLA): <1.00 Log10
- CFU/ml ([6]; 50 ppm PLA): <1.00E+01 CFU/ml
- Log10 Growth ([6]; 50 ppm PLA): <1.00 Log10
- Log10 Reduction ([6]; 50 ppm PLA): >6.89 Log10
- Average Log10 Growth ([6]; 100 ppm PLA): <1.00 Log10
- CFU/ml ([6]; 100 ppm PLA): <1.00E+01 CFU/ml
- Log10 Growth ([6]; 100 ppm PLA): <1.00 Log10
- Log10 Reduction ([6]; 100 ppm PLA): >6.89 Log10
- Efficacy against various microbes [7]: provides efficacy at low concentration doses
- log reduction against Listeria [8]: greater than 7 log

Compound: CC(=O)OO [PAA, peroxyacetic acid, reference compound]
- Odor [1]: Sharp pungent
- Concentration required for greater than 7 log reduction against Listeria [9]: at least 180 ppm
- Avg Log10 Survivors ([4]; 500 ppm): 6.54 Log10
- CFU/Surface (CFU/ml × 50) ([4]; 500 ppm): 4.35E+06 CFU/Surface and 2.35E+06 CFU/Surface and 3.95E+06 CFU/Surface
- Log10 Reduction ([4]; 500 ppm): 1.09 Log10
- Log10 Survivors ([4]; 500 ppm): 6.64 Log10 and 6.37 Log10 and 6.60 Log10
- Vapor Pressure (20° C.) [2]: 2.06 KPa

Compound: O=C(O)CO [Glycolic acid]
- Odor [1]: Odorless
- Vapor Pressure (20° C.) [2]: 0.003 KPa
